Laboratory results taken from patent US10870627B2, “Salt of quinazoline derivative, preparation method therefor and application thereof” (SHANGHAI PHARMACEUTICALS HOLDING CO., LTD., priority 2016, dated 2020).

Experiments:
[1] = Solid-state stability test; format: physicochemical
Experimental: An appropriate amount of the drugs were placed in the surface dish, spread to a thickness of 3-5 mm, and exposed in high temperature, high temperature and high humidity, illumination and oxidation conditions for 10 days respectively, and the solid-state characterization was performed. The purity and the number of impurities 0.05%) of the samples for testing were determined by HPLC, and compared with the samples on day 0. The exposure conditions are:
High temperature (an oven with T=60° C.);
Illumination (25° C., a 4500±500 lx light incubator);
Oxidation (25° C., a closed container containing urea hydrogen peroxide).

Solution stability test = format: physicochemical
Experimental: About 15 mg of the sample was weighed accurately, dissolved with 25 mL of the test solvent (10% aqueous acetone solution, pH=4.0 B-R buffer solution, SGF, SIF) via ultrasound for 20 minutes. The solution was divided into four portions and placed in the clear glass vials, followed by sealing. The samples were exposed in different environments and sampled on day 0 and day 5. The purity of each sample was determined by HPLC, and the number of impurities greater than 0.05% was calculated and compared with the samples on day 0. The exposure environments are:
Room temperature and light-proof test, 25° C.; […]
Illumination experiment (4500±500 lx), 25° C.;
Oxidation experiment (3% v/v hydrogen peroxide), 25° C.

[2] = Solubility determined by visual inspection; format: physicochemical
Experimental: The solubility was determined as follows: a certain amount of the sample was weighed and the solvent was added thereto in portions with stirring or ultrasonication to accelerate dissolution; the amount of the consumed solvent was recorded once the sample was dissolved. […] A certain volume of the solution was taken, followed by filtration, concentration, dissolved with a certain volume of other suitable solvents and subjected to HPLC measurement to obtain accurate data of the solubility.

[3] = Comparison of absorption in rats after intragastric administration of free base and salt (plasma pharmacokinetics); format: in vivo, SD rats; details: for AUC (0-t) / MRT (0-T) / Tmax / t1/2 / Cmax: SD rats, 20 μmol/kg, intragastric administration, plasma
Experimental: The blood sample was centrifuged at 8000 RPM for 5 minutes, followed by the isolation of the upper plasma. […] 200 μL of the supernatant was taken and centrifuged again for 10 minutes. 50 μL of the supernatant was injected in a 96-well plate. The plasma drug concentration was determined by LC/MS/MS, and the corresponding pharmacokinetic parameters were calculated.

[4] = Dynamic vapor sorption (DVS), isothermal absorption analysis; format: physicochemical
Experimental: In the present invention, according to the common knowledge in the art, the amount of water absorption obtained from the dynamic vapor sorption (DVS) pattern is expressed in percentage by weight.
The isothermal absorption analysis (DVS) data was collected from TA Instruments Q5000 TGA. The software for instrument control was Thermal Advantage and software for analysis was Universal Analysis. 1-10 mg of the sample was generally placed in a platinum crucible, and the weight change of the sample during the relative humidity changing from 20% to 80% was recorded by the TA software. Depending on the specifics of the sample, different steps of sample adsorption and desorption were also involved.

[5] = Water solubility at 20° C. determined by HPLC; format: physicochemical
[6] = 10 d, High temperature (oven, T=60° C.)
[7] = 10 d, High temperature and high humidity (40° C., 75% relative humidity)
[8] = 10 d, Illumination (25° C., 4500±500 lx)
[9] = 10 d, Oxidation (25° C., closed container with urea hydrogen peroxide)
[10] = 10% aqueous acetone solution, 0 d, impurities greater than 0.05%
[11] = 10% aqueous acetone solution, 5 d, High temperature
[12] = 10% aqueous acetone solution, 5 d, High temperature and high humidity
[13] = 10% aqueous acetone solution, 5 d, Illumination (4500±500 lx, 25° C.)
[14] = 10% aqueous acetone solution, 5 d, Oxidation (3% v/v hydrogen peroxide, 25° C.)
[15] = B-R Buffer solution (pH=4.0), 0 d, impurities greater than 0.05%
[16] = B-R Buffer solution (pH=4.0), 5 d, High temperature
[17] = B-R Buffer solution (pH=4.0), 5 d, High temperature and high humidity
[18] = B-R Buffer solution (pH=4.0), 5 d, Illumination (4500±500 lx, 25° C.)
[19] = B-R Buffer solution (pH=4.0), 5 d, Oxidation (3% v/v hydrogen peroxide, 25° C.)
[20] = SGF, 0 d, impurities greater than 0.05%
[21] = SGF, 5 d, High temperature and high humidity
[22] = SGF, 5 d, Illumination (4500±500 lx, 25° C.)
[23] = SGF, 5 d, Oxidation (3% v/v hydrogen peroxide, 25° C.)
[24] = SIF, 0 d, impurities greater than 0.05%
[25] = SIF, 5 d, High temperature and high humidity
[26] = SIF, 5 d, Illumination (4500±500 lx, 25° C.)
[27] = SIF, 5 d, Oxidation (3% v/v hydrogen peroxide, 25° C.)

Q: Which results are given for C=C(F)C(=O)Nc1cc2c(Nc3ccc(F)c(Cl)c3)ncnc2cc1OCCCN1CCOCC1.O=S(=O)(O)CCS(=O)(=O)O?
A: Number of impurities ([1]; 0 d): 2; Purity ([1]; 0 d): 99.0%; Number of impurities [1, 6]: 2; Purity [1, 6]: 99.0%; Number of impurities [1, 7]: 2; Purity [1, 7]: 99.0%; Number of impurities [1, 8]: 2; Purity [1, 8]: 99.0%; Number of impurities [1, 9]: 2; Purity [1, 9]: 99.0%; Number of impurities (Solution stability test; [10]): 1; Number of impurities (Solution stability test; [11]): 1; Purity (Solution stability test; [11]): 99.0%; Number of impurities (Solution stability test; [12]): 3; Purity (Solution stability test; [12]): 98.1%; Number of impurities (Solution stability test; [13]): 1; Number of impurities (Solution stability test; [14]): 7; Purity (Solution stability test; [14]): 70.8%; Purity (Solution stability test; B-R Buffer solution (pH=4.0), 0 d): 99.0%; Number of impurities (Solution stability test; [15]): 1; Number of impurities (Solution stability test; [16]): 1; Purity (Solution stability test; [16]): 99.0%; Number of impurities (Solution stability test; [17]): 3; Purity (Solution stability test; [17]): 97.7%; Number of impurities (Solution stability test; [18]): 1; Purity (Solution stability test; [18]): 99.0%; Number of impurities (Solution stability test; [19]): 15; Purity (Solution stability test; [19]): 44.0%; Purity (Solution stability test; SGF, 0 d): 99.0%; Number of impurities (Solution stability test; [20]): 1; Number of impurities (Solution stability test; SGF, 5 d, High temperature): 2; Number of impurities (Solution stability test; [21]): 2; Purity (Solution stability test; [21]): 94.5%; Number of impurities (Solution stability test; [22]): 2; Number of impurities (Solution stability test; [23]): 3; Purity (Solution stability test; SIF, 0 d): 74.8%; Number of impurities (Solution stability test; [24]): 2; Number of impurities (Solution stability test; SIF, 5 d, High temperature): 1; Purity (Solution stability test; SIF, 5 d, High temperature): 50.0%; Number of impurities (Solution stability test; [25]): 6; Purity (Solution stability test; [25]): 36.5%; Number of impurities (Solution stability test; [26]): 13; Purity (Solution stability test; [26]): 25.2%; Number of impurities (Solution stability test; [27]): 7; Purity (Solution stability test; [27]): 30.8%; visual solubility in water ([2]; room temperature): 1000 to 2000 µg/mL; AUC (0-t) [3]: 195.56 ± 84.51 µM·min; MRT (0-T) [3]: 5.3317 ± 0.9937 h; Tmax [3]: 1.333 ± 0.2887 h; t1/2 [3]: 3.744 ± 0.9165 h; Cmax ([3]; listed as monoethanedisulfonate): 390 ± 160 nM; AUC (0-t) and Cmax, comparison in words ([3]; rats, oral, same dose, free base and 6 salts): relatively low; hygroscopicity, in words [4]: not easy to absorb moisture

Q: For C=C(F)C(=O)Nc1cc2c(Nc3ccc(F)c(Cl)c3)ncnc2cc1OCCCN1CCOCC1.O=S(=O)(O)O.O=S(=O)(O)O [disulfate of the quinazoline derivative], which “visual solubility in water” value ([2]; 20° C.) is on record?
A: 910 to 1000 µg/mL

Q: Which results are given for C=C(F)C(=O)Nc1cc2c(Nc3ccc(F)c(Cl)c3)ncnc2cc1OCCCN1CCOCC1.O=S(=O)(O)O?
A: visual solubility in water ([2]; 20° C.): 1000 to 2000 µg/mL; AUC (0-t) [3]: 591.00 ± 29.76 µM·min; MRT (0-T) [3]: 5.7252 ± 0.7072 h; Tmax [3]: 1.167 ± 0.2887 h; t1/2 [3]: 3.8468 ± 2.704 h; Cmax ([3]; listed as monosulfate): 1660 ± 270 nM; hygroscopicity, in words [4]: fairly hygroscopic

Q: Which Number of impurities ([1]; 0 d) does the source give for C=C(F)C(=O)Nc1cc2c(Nc3ccc(F)c(Cl)c3)ncnc2cc1OCCCN1CCOCC1.O=S(=O)(O)c1ccccc1 here?
A: 2

Q: And the Number of impurities [1, 6]?
A: 2

Q: And the Number of impurities [1, 7]?
A: 2

Q: And the Number of impurities [1, 8]?
A: 2

Q: What about the Number of impurities [1, 9] of the same compound?
A: 2

Q: What about the Purity (Solution stability test; 10% aqueous acetone solution, 0 d) of the same compound?
A: 98.2%

Q: And the Number of impurities (Solution stability test; [10])?
A: 1

Q: And the Number of impurities (Solution stability test; [11])?
A: 1

Q: And the Purity (Solution stability test; [11])?
A: 97.9%

Q: And the Number of impurities (Solution stability test; [12])?
A: 3

Q: What about the Number of impurities (Solution stability test; [13]) of the same compound?
A: 1

Q: What about the Purity (Solution stability test; [13]) of the same compound?
A: 97.6%

Q: What about the Number of impurities (Solution stability test; [14]) of the same compound?
A: 7

Q: What about the Purity (Solution stability test; [14]) of the same compound?
A: 60.8%

Q: And the Number of impurities (Solution stability test; [15])?
A: 2

Q: And the Number of impurities (Solution stability test; [16])?
A: 3

Q: What about the Purity (Solution stability test; [16]) of the same compound?
A: 97.2%

Q: And the Number of impurities (Solution stability test; [17])?
A: 3

Q: And the Purity (Solution stability test; [17])?
A: 97.2%

Q: And the Number of impurities (Solution stability test; [18])?
A: 1

Q: And the Number of impurities (Solution stability test; [19])?
A: 12

Q: And the Purity (Solution stability test; [19])?
A: 38.1%

Q: What about the Number of impurities (Solution stability test; [20]) of the same compound?
A: 1

Q: What about the Number of impurities (Solution stability test; SGF, 5 d, High temperature) of the same compound?
A: 2

Q: What about the Number of impurities (Solution stability test; [21]) of the same compound?
A: 2

Q: And the Purity (Solution stability test; [21])?
A: 94.4%

Q: What about the Number of impurities (Solution stability test; [22]) of the same compound?
A: 1

Q: And the Number of impurities (Solution stability test; [23])?
A: 3

Q: What about the Purity (Solution stability test; [23]) of the same compound?
A: 81.7%

Q: And the Purity (Solution stability test; SIF, 0 d)?
A: 80.2%

Q: What about the Number of impurities (Solution stability test; [24]) of the same compound?
A: 2

Q: And the Number of impurities (Solution stability test; SIF, 5 d, High temperature)?
A: 1

Q: And the Purity (Solution stability test; SIF, 5 d, High temperature)?
A: 58.7%

Q: And the Number of impurities (Solution stability test; [25])?
A: 8

Q: And the Purity (Solution stability test; [25])?
A: 42.0%

Q: What about the Number of impurities (Solution stability test; [26]) of the same compound?
A: 9

Q: What about the Purity (Solution stability test; [26]) of the same compound?
A: 10.0%

Q: And the Purity (Solution stability test; [27])?
A: Complete

Q: What about the “water solubility at 20° C. determined by HPLC” value [5] of the same compound?
A: 60.4 µg/mL

Q: What about the “AUC (0-t)” value [3] of the same compound?
A: 972.26 ± 291.88 µM·min

Q: And the “MRT (0-T)” value [3]?
A: 5.9522 ± 0.2533 h

Q: What about the Tmax [3] of the same compound?
A: 1.333 ± 0.5773 h

Q: What about the t1/2 [3] of the same compound?
A: 5.0897 ± 2.1273 h

Q: And the Cmax ([3]; listed as monobenzenesulfonate)?
A: 2300 ± 470 nM

Q: And the “hygroscopicity, in words” value [4]?
A: not easy to absorb moisture
